For data set [1], the target named is T1, Aβ1–42 (Homo sapiens, UniProt P05067).
T1 construct: Aβ1−42 (Sigma-Aldrich) was dissolved in NH4OH (1% v/v) to get a stock solution; purchased Sigma-Aldrich
Nature of the data set: Inhibition of self-mediated Aβ1–42 aggregation, thioflavin T fluorescence assay. Particulars: ThT assay, compounds 20 μM, mean of n = 3 ± SD. Type of data set: biochemical.

The target in data set [2] is T2, Cu^2+-induced Aβ1-42 aggregation (Homo sapiens, UniProt P05067).
T2 construct: Aβ1-42 (Sigma-Aldrich A9810, 20 μM) was dissolved in HEPES buffer; purchased Sigma-Aldrich A9810
T2 sequence (P05067 672-713 limits assumed): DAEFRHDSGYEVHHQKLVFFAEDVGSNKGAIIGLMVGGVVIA
Nature of the data set: Cu^2+-induced Aβ1-42 aggregation, thioflavin T fluorometric detection. It counts as biochemical. The settings on record: ThT, compound stock 150 μM; for Disaggregation of Cu^2+-induced Aβ1-42 aggregation: Figure 4A. The method, then:
To further detect the ability of compounds 6b, CQ and MT to disaggregate or inhibit the Cu^2+-induced Aβ1-42 aggregation, we conducted thioflavin T fluorometric detection ([Hu et al., 2019]).
Detection of the compounds for disaggregated and inhibitory effects on Cu^2+ induced Aβ1-42 aggregation. Aβ1-42 (Sigma-Aldrich A9810, 20 μM) was dissolved in HEPES buffer (pH = 6.6, containing 1% ammonium hydroxide). 10 μL of Aβ1-42 was previously incubated with or without Cu^2+ at 37°C for 3 days to pre-fibrillation. 10 μL of 6b, CQ, and MT (150 μM, in DMSO) were incubated before or after the pre-fibrillation of Aβ1-42 at 37°C for 1 day. After incubation, 170 μL of thioflavin T (5 μM, in 50 mM glycine-NaOH buffer) was added to mix well. After incubation for 5 min, the Aβ1-42 aggregation was detected by Microplate Reader (HITACHI, F-4700) with excitation/emission at 450/485 nm.

Data set [3] can be described thus: Parallel artificial membrane permeability assay for the blood-brain barrier (PAMPA-BBB). The settings on record: for Papp / P e: PAMPA; for pred (predicted BBB permeation): classified from PAMPA-BBB Pe; for P e: can cross the blood-brain barrier.
The nature of data set [4]: in vitro. The settings on record: PAMPA. (PAMPA measures passive passage across an artificial lipid membrane.)
The nature of data set [5]: Oxygen radical absorbance capacity (ORAC-FL) assay. Particulars: compounds 5 µM, mean of n = 3 ± SD.
Experimental: The solution of 2,2′-azobis- (amidinopropane) dihydrochloride (AAPH) was prepared to a final concentration of 40 mM. The mixture of the tested compounds (20 µL) and FL (120 μL; 70 nM) was pre-incubated for 10 min at 37°C, 60 µL of the AAPH solution was added. The fluorescence was recorded every minute for 120 min (excitation, 485 nm; emission, 520 nm). The antioxidant curves (fluorescence versus time) were normalized to the curve of the blank.
Where f0 is the initial fluorescence reading at 0 min and fi is the fluorescence reading at time i. The net AUC was calculated by the expression: AUCsample—AUCblank. Regression equations between net AUC and Trolox concentration were calculated. ORAC-FL value of the tested compound expressed as Trolox equivalents.
The conditions of data set [6]: 13 commercial drugs for validation, literature value; ref Bibl a; cited from earlier work.

T1 sequence (P05067 672-713 limits assumed): as above

Take `Oc1c(I)cc(Cl)c2cccnc12` [CQ, clioquinol, reference compound]: in data set [1], the inhibition at 20 µM is 30.8 ± 1.08%. For the same molecule, the “Disaggregation of Cu^2+-induced Aβ1-42 aggregation” value in data set [2] is given as “significantly disaggregated”.

`CN(C)CCCN1c2ccccc2Sc2ccc(Cl)cc21` [Chlorpromazinne, chlorpromazine, reference compound]: in data set [3], the Papp was determined as 6.63 ± 0.81 ×10⁻⁶ cm/s and the “pred (predicted BBB permeation)” value is on record as “CNS+ (Compounds of high BBB permeation (CNS+) Pe>4.7)”.

Take `Oc1cccc2ccc(CNCCc3c[nH]c4ccccc34)nc12` [Compound 3a, 2-(((2-(1H-indol-3-yl)ethyl)amino)methyl)quinolin-8-ol]: 20 µM produced 27.1 ± 5.01% inhibition in data set [1]. Also, the Papp in data set [4] was 8.08 ± 0.56 ×10⁻⁶ cm/s. Also, the ORAC in data set [5] was 3.50 ± 0.12 Trolox equivalents. In data set [3], the “P e” value was over 4.7 and the “pred (predicted BBB permeation)” value is reported as “CNS+ (Compounds of high BBB permeation (CNS+) Pe>4.7)”.

As for `COc1ccc2[nH]cc(CCNCc3ccc4cccc(O)c4n3)c2c1` [Compound 3b, 2-(((2-(5-methoxy-1H-indol-3-yl)ethyl)amino)methyl)quinolin-8-ol], in data set [1], testing at 20 µM gave an inhibition of 18.2 ± 2.02%. This molecule showed a Papp in data set [4] of 6.61 ± 0.22 ×10⁻⁶ cm/s. In data set [5], this molecule displayed an ORAC of 3.25 ± 0.10 Trolox equivalents. Further, in data set [3], the “P e” value is given as over 4.7 and the “pred (predicted BBB permeation)” value is reported as “CNS+ (Compounds of high BBB permeation (CNS+) Pe>4.7)”.

For `Oc1ccc2[nH]cc(CCNCc3ccc4cccc(O)c4n3)c2c1` [Compound 3c, 2-(((2-(5-hydroxy-1H-indol-3-yl)ethyl)amino)methyl)quinolin-8-ol], in data set [1], testing at 20 µM gave an inhibition of 40.2 ± 2.89%. Also, the Papp in data set [4] came out at 4.81 ± 0.87 ×10⁻⁶ cm/s. Further, the ORAC in data set [5] amounted to 4.47 ± 0.18 Trolox equivalents. Besides, in data set [3], the “P e” value was over 4.7 and the “pred (predicted BBB permeation)” value was “CNS+ (Compounds of high BBB permeation (CNS+) Pe>4.7)”.

In data set [1], `Oc1cccc2ccc(CNCc3c[nH]c4ccccc34)nc12` [Compound 3d, 2-((((1H-indol-3-yl)methyl)amino)methyl)quinolin-8-ol] gave an inhibition at 20 µM of 20.5 ± 4.72%. Also, in data set [5], the ORAC is on record as 2.60 ± 0.20 Trolox equivalents. Also, in data set [3], the Papp was 5.09 ± 1.32 ×10⁻⁶ cm/s, the “P e” value is on record as over 4.7 and the “pred (predicted BBB permeation)” value is “CNS+ (Compounds of high BBB permeation (CNS+) Pe>4.7)”.

As for `CN(CCc1c[nH]c2ccccc12)Cc1ccc2cccc(O)c2n1` [Compound 4, 2-(((2-(1H-indol-3-yl)ethyl)(methyl)amino)methyl)quinolin-8-ol], the inhibition at 20 µM in data set [1] came out at 52.5 ± 6.47%. The molecule further returned a Papp in data set [4] of 9.87 ± 0.66 ×10⁻⁶ cm/s. This molecule showed an ORAC in data set [5] of 2.93 ± 0.15 Trolox equivalents. Moreover, in data set [3], the “P e” value is reported as over 4.7 and the “pred (predicted BBB permeation)” value is “CNS+ (Compounds of high BBB permeation (CNS+) Pe>4.7)”.

In data set [1], `O=C(NCCc1c[nH]c2ccccc12)c1ccc2cccc(O)c2n1` [Compound 6a, N-(2-(1H-indol-3-yl)ethyl)-8-hydroxyquinoline-2-carboxamide] had an inhibition at 20 µM of 45.45 ± 0.41%. Besides, the ORAC in data set [5] is given as 2.49 ± 0.22 Trolox equivalents. For the same molecule, in data set [3], the Papp is 7.71 ± 0.61 ×10⁻⁶ cm/s, the “P e” value is listed as over 4.7 and the “pred (predicted BBB permeation)” value is reported as “CNS+ (Compounds of high BBB permeation (CNS+) Pe>4.7)”.

The molecule `O=C(NCc1c[nH]c2ccccc12)c1ccc2cccc(O)c2n1` [Compound 6d, N-((1H-indol-3-yl)methyl)-8-hydroxyquinoline-2-carboxamide] yielded an inhibition at 20 µM in data set [1] of 19.2 ± 5.85%. The ORAC in data set [5] was found to be 2.32 ± 0.17 Trolox equivalents. In addition, in data set [3], the Papp turned out to be 6.81 ± 1.13 ×10⁻⁶ cm/s, the “P e” value was over 4.7 and the “pred (predicted BBB permeation)” value is listed as “CNS+ (Compounds of high BBB permeation (CNS+) Pe>4.7)”.

For `O=C(Cc1c[nH]c2ccccc12)NCc1ccc(O)c2ncccc12` [Compound 11a, N-((8-hydroxyquinolin-5-yl)methyl)-2-(1H-indol-3-yl)acetamide], 20 µM produced 44.7 ± 5.18% inhibition in data set [1]. Moreover, the ORAC in data set [5] is given as 2.91 ± 0.16 Trolox equivalents. In data set [3], the Papp was determined as 2.82 ± 0.42 ×10⁻⁶ cm/s and the “pred (predicted BBB permeation)” value was “CNS± (Compounds of uncertain BBB permeation (CNS+/ -) 4.7>Pe>1.8)”.

In data set [1], `COc1ccc2[nH]cc(CC(=O)NCc3ccc(O)c4ncccc34)c2c1` [Compound 11b, N-((8-hydroxyquinolin-5-yl)methyl)-2-(5-methoxy-1H-indol-3-yl)acetamide] yielded an inhibition at 20 µM of 34.9 ± 2.91%. In data set [5], this molecule came in with an ORAC of 3.58 ± 0.12 Trolox equivalents. Besides, in data set [3], the Papp is 1.35 ± 0.25 ×10⁻⁶ cm/s and the “pred (predicted BBB permeation)” value is given as “CNS− (Compounds of low BBB permeation (CNS -) Pe<1.8)”.

`O=C(NCCc1c[nH]c2ccccc12)c1ccc2cccnc2c1O` [Compound 13a, N-(2-(1H-indol-3-yl)ethyl)-8-hydroxyquinoline-7-carboxamide] gave an inhibition at 20 µM in data set [1] of 47 ± 6.25%. The molecule further gave an ORAC in data set [5] of 1.06 ± 0.07 Trolox equivalents. Moreover, in data set [3], the Papp came out at 3.98 ± 0.45 ×10⁻⁶ cm/s and the “pred (predicted BBB permeation)” value is “CNS± (Compounds of uncertain BBB permeation (CNS+/ -) 4.7>Pe>1.8)”.

As to `COc1ccc2[nH]cc(CCNC(=O)c3ccc4cccnc4c3O)c2c1` [Compound 13b, 8-hydroxy-N-(2-(5-methoxy-1H-indol-3-yl)ethyl)quinoline-7-carboxamide], the inhibition at 20 µM in data set [1] amounted to 19.7 ± 2.06%. Besides, in data set [5], the ORAC was 1.33 ± 0.02 Trolox equivalents. Also, in data set [3], the apparent permeability (Papp) was determined as 1.12 ± 0.42 ×10⁻⁶ cm/s and the “pred (predicted BBB permeation)” value is “CNS− (Compounds of low BBB permeation (CNS -) Pe<1.8)”.

On to `O=C(NCc1c[nH]c2ccccc12)c1ccc2cccnc2c1O` [Compound 13c, N-((1H-indol-3-yl)methyl) -8-hydroxyquinoline-7-carboxamide], for which testing at 20 µM in data set [1] gave an inhibition of 38.6 ± 5.12%. Also, in data set [5], the ORAC is 0.94 ± 0.02 Trolox equivalents. In data set [3], the Papp is 2.65 ± 0.46 ×10⁻⁶ cm/s and the “pred (predicted BBB permeation)” value is “CNS± (Compounds of uncertain BBB permeation (CNS+/ -) 4.7>Pe>1.8)”.

In data set [1], `COc1cc(/C=C/C(=O)CC(=O)/C=C/c2ccc(O)c(OC)c2)ccc1O` [Curcumin, reference compound] gave an inhibition at 20 µM of 52.9 ± 6.38%.

As for `COc1ccc2[nH]cc(CCNC(C)=O)c2c1` [Melatonin], the inhibition at 20 µM in data set [1] was determined as 39 ± 9.35%. In data set [2], the “Disaggregation of Cu^2+-induced Aβ1-42 aggregation” value is given as “mild disaggregated effect”. In addition, in data set [2] (Figure 4B), the “Inhibition of Cu^2+-induced Aβ1-42 aggregation” value was “weak inhibitory activity”.

`CN1C(C(=O)Nc2ccccn2)=C(O)c2ccccc2S1(=O)=O` [piroxicam]: in data set [6], the “Pe, Bibl” value was 2.5 ×10⁻⁶ cm/s.

Consider `CN(C)CCCN1c2ccccc2Sc2ccccc21` [promazine], for which the “Pe, Bibl” value in data set [6] is 8.8 ×10⁻⁶ cm/s.

As usually defined, the inhibition is how much of the control response was suppressed. By Papp is commonly meant the rate of passage across a membrane or cell layer, normalised by area and donor concentration. Read a low Papp as slow passage.

Source of the values: article PMC11059093 (Frontiers in Chemistry, 2024).
